Measured values as given in article PMC5418574, “Facile access to potent antiviral quinazoline heterocycles with fluorescence properties via merging metal-free domino reactions” (Nature Communications, 2017).
Values joined by “and” are separate entries in the source; they are usually repeats but may differ in a detail not shown here. Equal entries are not always repeated. Where two headings read alike, the source gives them in different places.

Legend:
HCMV AD169-GFP = assay: HCMV GFP-based replication assay (automated GFP fluorometry); type: cell-based, human cytomegalovirus
Experimental: The measurement of antiviral activity was based on automated fluorometry using a green fluorescent protein (GFP)-expressing, recombinant HCMV (excitation 485 nm, emission 535 nm; see Supplementary Note 2, Supplementary Data 1 and Supplementary Fig. 4 for dose–response curves).
HCMV GFP‐based replication assay and cell proliferation assay. The replication of human cytomegalovirus (HCMV) was determined by an established HCMV GFP-based replication assay as carried out over a duration of approx. seven days (multi-round infection) using cultures of primary human foreskin fibroblasts (HFFs). HFFs were cultivated in 12-well plates for the infection with a GFP-expressing recombinant human cytomegalovirus (HCMV AD169-GFP) and a signal quantitation using automated GFP fluorometry as described before.2-4 All data represent mean values of determinations in quadruplicate (HCMV infections performed in duplicate, GFP measurements of total cell lysates performed in duplicate). Processing and evaluation of data was performed by the use of Excel (means and standard deviations, see Supplementary Figure 4 and Supplementary Data 1). […]

[1] = trypan blue exclusion cytotoxicity assay; type: cell-based; conditions: human, primary HFFs (human foreskin fibroblasts), 0.2-100 μM for 3 days, n=6 (artesunic acid n=3)
Experimental: (§1) In addition, EC50 values were confirmed using non-GFP-expressing HCMV (strain AD169) by a classical plaque formation assay on HFFs (n=4), providing data consistent with the GFP-based data shown in Table 1, that is, compound 7h, 7.3±0.7 μM; compound 8, 0.3±0.0 μM; compound 9, 0.3±0.1 μM. Moreover, antiviral activity was clearly separated from putative cytotoxic effects because of the results obtained with a standard trypan blue exclusion assay. […] Consistent with these findings are results from a MTS-based cell proliferation assay, showing moderate or no antiproliferative effects on HFFs for all analysed compounds in concentrations up to 30 μM (see Supplementary Fig. 5 and Supplementary Methods). Thus, the new quinazolines and hybrid compounds can be regarded as selective, which is one of the most important aspects in drug design.
Cytotoxicity and Cell Proliferation Assays
Assays measuring distinct parameters of cytotoxicity and/or cell proliferation were performed as described earlier.7, 8 In brief, a trypan blue exclusion assay was performed with cultured cells seeded in 24-well plates and incubated with increasing concentrations of antiviral compounds (range of 0.2 μM to […]
before the percentage of viable cells was determined by microscopic counting (determination at least in triplicates). The cell proliferation assay (CellTiter 96 AQueous One Solution cell proliferation assay; Promega) was performed in a 96-well plate format after a 3-day treatment with compounds under standard conditions of measurement as described by the manufacturer. […]

[2] = tested on: non-GFP-expressing HCMV (strain AD169); assay: classical plaque formation assay on HFFs; type: cell-based, human cytomegalovirus; conditions: Human betaherpesvirus 5, AD169, read-out: EC50, plaque formation assay
Experimental: as §1

primary HFFs = assay: confocal laser-scanning microscopy of cellular uptake of fluorescent compounds; type: cell-based, human; conditions: 1–10 μM, uninfected or HCMV-infected, 20 h incubation
Experimental: Figure 7 Microscopy-based visualization of cellular uptake of fluorescent quinazoline compounds. (a) Artesunic acid–quinazoline hybrids 8 and 9. (b–d) Compounds 7h, 7g and 9 were analysed for properties of fluorescence imaging using confocal laser-scanning microscopy. HFFs were cultivated in six-well plates on cover slips and were either directly incubated with compounds by addition to the culture media for 20 h (c) or were added after HCMV infection (b,d; compound addition at 50 h post infection, fixation and analysis of cells 20 h later; scale bar, 10 μm). The chosen concentrations were 10 μM for compounds 7h, 7g and 9, or 1 μM for compound 9 in panels 4, 9 (b), panels 5, 10 (c) and panels 6–10 (d), referring to the compounds' EC50 values of anti-HCMV activity (see Table 1). The depicted images are representative for three independent experiments. Lack of mycoplasm contamination was verified by routine 4,6-diamidino-2-phenylindole staining. General procedures of cell fixation, indirect immunofluorescence staining of proteins (d) and microscopic analysis have been described elsewhere.
When analysing primary HFFs, the fluorescent compounds 7g, 7h and 9 could nicely be depicted both in extracellular (transparent arrows) and intracellular localizations (filled arrows; Fig. 7b,c). […] A nonfluorescent artemisinin-derived control compound (Fig. 7c, panels 2 and 7; see also Supplementary Fig. 6), the DMSO panels (solvent controls) as well as the inspection of different excitation wavelengths of the confocal laser-scanning microscopy confirmed the specificity of signals and a lack of unwarranted cross-fluorescence. […] An indirect immunofluorescence counterstaining of viral and cellular proteins[36][37] led to the detection of nuclear markers, that is, the viral protein kinase pUL97 and cellular lamins type A/C (Fig. 7d, panels 4, 9, 14 or 5, 10, 15, respectively), in the context of extracellular and intracellular fluorescence signals of compounds 7h and 9 (Fig. 7d, panels 1–5 or 6–15, respectively). […]

[3] = Human betaherpesvirus 5, AD169, read-out: HCMV EC50
[4] = Human betaherpesvirus 5, AD169, read-out: EC50 (sheet Curves)

Compound | GFP signal, % of Inf./DMSO, MW (mean) (HCMV AD169-GFP; 0.01 µM) [%] | GFP signal, % of Inf./DMSO, single determination (raw data) (HCMV AD169-GFP; 0.01 µM) | GFP signal, % of Inf./DMSO, MW (mean) (HCMV AD169-GFP; 0.04 µM) [%] | GFP signal, % of Inf./DMSO, single determination (raw data) (HCMV AD169-GFP; 0.04 µM) | GFP signal, % of Inf./DMSO, MW (mean) (HCMV AD169-GFP; 0.12 µM) [%] | GFP signal, % of Inf./DMSO, single determination (raw data) (HCMV AD169-GFP; 0.12 µM) | GFP signal, % of Inf./DMSO, MW (mean) (HCMV AD169-GFP; 0.37 µM) [%] | GFP signal, % of Inf./DMSO, single determination (raw data) (HCMV AD169-GFP; 0.37 µM) | GFP signal, % of Inf./DMSO, MW (mean) (HCMV AD169-GFP; 1.1 µM) [%] | GFP signal, % of Inf./DMSO, single determination (raw data) (HCMV AD169-GFP; 1.1 µM) | EC50 (HCMV AD169-GFP; [3]) [µM] | CC50 at 3 days [1] [µM] | EC50 [2] [µM] | cellular uptake (intracellular fluorescence) (primary HFFs) | GFP signal, % of Inf./DMSO, MW (mean) (HCMV AD169-GFP; 3.3 µM) [%] | GFP signal, % of Inf./DMSO, single determination (raw data) (HCMV AD169-GFP; 3.3 µM) | GFP signal, % of Inf./DMSO, MW (mean) (HCMV AD169-GFP; 10 µM) [%] | GFP signal, % of Inf./DMSO, single determination (raw data) (HCMV AD169-GFP; 10 µM) | EC50 (HCMV AD169-GFP; [4]) [µM]
CC1CCC2C(C)C(OC(=O)CCC(=O)OCCCNc3ncnc4c(C#N)c(-c5ccc(C(F)(F)F)cc5)cc(-c5ccc(C(F)(F)F)cc5)c34)OC3OC4(C)CCC1C32OO4 (centres unmarked) [compound 9] | 84 | 73% and 98% and 95% and 70% | 81 | 84% and 89% and 73% and 77% | 49 | 51% and 47% and 53% and 46% | 1.06 | 0.952% and 0.865% and 1.31% and 1.1% | 0.87 | 0.763% and 0.908% and 0.901% | 0.1 | > 100 | 0.3 ± 0.1 | efficient cellular uptake | – | – | – | – | –
N#Cc1c(-c2ccc(C(F)(F)F)cc2)cc(-c2ccc(C(F)(F)F)cc2)c2c(N)ncnc12 [7h] | – | – | – | – | 72 | 60% and 89% and 90% and 49% | 71 | 80% and 75% and 61% and 68% | 75 | 61% and 62% and 87% and 89% | 4.6 ± 0.9 | > 100 | 7.3 ± 0.7 | efficient cellular uptake | 58 | 58% and 67% and 50% and 57% | 22 | 16% and 27% and 28% | –
CC1CCC2C(C)C(OC(=O)CCC(=O)OCCCNc3ncnc4c(C#N)c(-c5ccc(F)cc5)cc(-c5ccc(F)cc5)c34)OC3OC4(C)CCC1C32OO4 (centres unmarked) [compound 8] | 88 | 102% and 75% and 74% | 90 | 89% and 86% and 90% and 94% | 88 | 93% and 86% and 79% | 73 | 80% and 78% and 68% and 66% | 11 | 10% and 11% and 12% | 0.6 ± 0.1 | > 100 | 0.3 | – | 7 | 7.61% and 6.36% and 6% and 7% | – | – | 0.64
COc1ccc(-c2cc(-c3ccc(OC)cc3)c3c(N)ncnc3c2C#N)cc1 [7i] | 82 | 85% and 84% and 78% | 91 | 100% and 98% and 84% | 83 | 89% and 80% and 75% | 54 | 53% and 57% | 38 | 39% and 42% and 35% | 0.6 ± 0.1 | > 100 | – | – | 31 | 28% and 26% and 34% and 35% | – | – | 0.56
